≈ marks a conversion by molar mass, not a printed value.
Tested on: Mycobacterium tuberculosis
Assay: Antitubercular activity against Mycobacterium tuberculosis H37Rv ATCC 27294 assessed as growth inhibition after 28 days by agar dilution method
Type: functional
Settings: for MIC: Mycobacterium tuberculosis, H37Rv ATCC 27294, 672 h

Compound | -logMIC | MIC
O=[N+]([O-])c1ccc(C2=NNC(c3ccc(Cl)cc3Cl)C2)cc1 (stereo not drawn) | 4.427 | 37.4 µM (≈ 12.6 µg/mL)
O=C(/C=C/c1cccc(Cl)c1)c1ccc([N+](=O)[O-])cc1 | 4.362 | 43.5 µM (≈ 12.5 µg/mL)
O=[N+]([O-])c1ccc(C2=NNC(c3ccc(Br)cc3)C2)cc1 (stereo not drawn) | 4.139 | 72.7 µM (≈ 25.2 µg/mL)
COc1ccc(OC)c(C2CC(c3ccc([N+](=O)[O-])cc3)=NC(=O)N2)c1 (stereo not drawn) |  | > 282 µM
COc1cc(C2CC(c3ccc([N+](=O)[O-])cc3)=NC(=S)N2)cc(OC)c1OC (stereo not drawn) | 3.601 | 249 µM (≈ 100 µg/mL)
CN(C)c1ccc(/C=C/C(=O)c2ccc([N+](=O)[O-])cc2)cc1 | 4.074 | 84.5 µM (≈ 25 µg/mL)
COc1cc(C2CC(c3ccc([N+](=O)[O-])cc3)=NN2)cc(OC)c1OC (stereo not drawn) | 3.852 | 141 µM (≈ 50.3 µg/mL)
COc1cccc(/C=C/C(=O)c2ccc([N+](=O)[O-])cc2)c1 | 4.054 | 88.3 µM (≈ 25 µg/mL)
COc1ccc(C2CC(c3ccc([N+](=O)[O-])cc3)=NC(=O)N2)cc1 (stereo not drawn) | 3.811 | 154 µM (≈ 50.1 µg/mL)
COc1cccc(C2CC(c3ccc([N+](=O)[O-])cc3)=NC(=O)N2)c1 (stereo not drawn) | 3.51 | 308 µM (≈ 100 µg/mL)
COc1ccc(C2CC(c3ccc([N+](=O)[O-])cc3)=NC(=S)N2)cc1OC (stereo not drawn) | 3.869 | 135 µM (≈ 50.1 µg/mL)
O=C1N=C(c2ccc([N+](=O)[O-])cc2)CC(c2ccc(Cl)cc2Cl)N1 (stereo not drawn) | 4.462 | 34.3 µM (≈ 12.5 µg/mL)
O=[N+]([O-])c1ccc(C2=NC(=S)NC(c3ccc(F)cc3)C2)cc1 (stereo not drawn) | 4.418 | 38 µM (≈ 12.5 µg/mL)
O=[N+]([O-])c1ccc(C2=NNC(c3ccc(F)cc3)C2)cc1 (stereo not drawn) | 4.355 | 44.2 µM (≈ 12.6 µg/mL)
O=[N+]([O-])c1ccc(C2=NOC(c3ccc(F)cc3)C2)cc1 (stereo not drawn) | 4.357 | 44 µM (≈ 12.6 µg/mL)
COc1cccc(C2CC(c3ccc([N+](=O)[O-])cc3)=NN2)c1 (stereo not drawn) | 3.47 | 339 µM (≈ 101 µg/mL)
O=C1N=C(c2ccc([N+](=O)[O-])cc2)CC(c2ccc(F)cc2)N1 (stereo not drawn) | 4.697 | 20 µM (≈ 6.26 µg/mL)
CC[C@@H](CO)NCCN[C@@H](CC)CO [ETHAMBUTOL] | 5.117 | 7.63 µM (≈ 1.56 µg/mL)
COc1cc(C2CC(c3ccc([N+](=O)[O-])cc3)=NC(=O)N2)cc(OC)c1OC (stereo not drawn) | 3.585 | 260 µM (≈ 100 µg/mL)
COc1cccc(C2CC(c3ccc([N+](=O)[O-])cc3)=NC(=S)N2)c1 (stereo not drawn) | 3.531 | 293 µM (≈ 100 µg/mL)
COc1ccc(/C=C/C(=O)c2ccc([N+](=O)[O-])cc2)cc1 |  | > 88.3 µM
O=C1N=C(c2ccc([N+](=O)[O-])cc2)CC(c2cccc(Cl)c2)N1 (stereo not drawn) | 4.419 | 38 µM (≈ 12.5 µg/mL)
COc1ccc(C2CC(c3ccc([N+](=O)[O-])cc3)=NN2)cc1OC (stereo not drawn) | 3.813 | 154 µM (≈ 50.4 µg/mL)
O=C(/C=C/c1ccc(Cl)cc1)c1ccc([N+](=O)[O-])cc1 | 4.362 | 43.5 µM (≈ 12.5 µg/mL)
O=[N+]([O-])c1ccc(C2=NC(=S)NC(c3ccc(Br)cc3)C2)cc1 (stereo not drawn) | 4.492 | 32 µM (≈ 12.5 µg/mL)
COc1cccc(C2CC(c3ccc([N+](=O)[O-])cc3)=NO2)c1 (stereo not drawn) |  | > 169 µM

Compound | -logMIC | MIC
O=C1N=C(c2ccc([N+](=O)[O-])cc2)CC(c2ccc(Cl)cc2)N1 (stereo not drawn) | 4.419 | 38 µM (≈ 12.5 µg/mL)
CO[C@H]1/C=C/O[C@@]2(C)Oc3c(C)c(O)c4c(O)c(c(/C=N/N5CCN(C)CC5)c(O)c4c3C2=O)NC(=O)/C(C)=C\C=C\[C@H](C)[C@H](O)[C@@H](C)[C@@H](O)[C@@H](C)[C@H](OC(C)=O)[C@@H]1C [RIFAMPIN] | 6.924 | 0.119 µM (≈ 0.0979 µg/mL)
O=[N+]([O-])c1ccc(C2=NC(=S)NC(c3ccc(Cl)cc3Cl)C2)cc1 (stereo not drawn) | 4.481 | 32.9 µM (≈ 12.5 µg/mL)
CN(C)c1ccc(C2CC(c3ccc([N+](=O)[O-])cc3)=NN2)cc1 (stereo not drawn) | 3.489 | 323 µM (≈ 100 µg/mL)
O=[N+]([O-])c1ccc(C2=NC(=S)NC(c3cccc(Cl)c3)C2)cc1 (stereo not drawn) | 4.138 | 72.5 µM (≈ 25.1 µg/mL)
CN(C)c1ccc(C2CC(c3ccc([N+](=O)[O-])cc3)=NC(=O)N2)cc1 (stereo not drawn) | 3.527 | 296 µM (≈ 100 µg/mL)
O=C(/C=C/c1ccc(Cl)cc1Cl)c1ccc([N+](=O)[O-])cc1 | 5.315 | 4.84 µM (≈ 1.56 µg/mL)
NNC(=O)c1ccncc1 [ISONIAZID] | 6.447 | 0.357 µM (≈ 0.049 µg/mL)
COc1ccc(OC)c(C2CC(c3ccc([N+](=O)[O-])cc3)=NC(=S)N2)c1 (stereo not drawn) | 3.869 | 135 µM (≈ 50.1 µg/mL)
COc1ccc(OC)c(/C=C/C(=O)c2ccc([N+](=O)[O-])cc2)c1 | 4.098 | 79.9 µM (≈ 25 µg/mL)
O=C(/C=C/c1ccc(Br)cc1)c1ccc([N+](=O)[O-])cc1 | 5.026 | 9.43 µM (≈ 3.13 µg/mL)
O=[N+]([O-])c1ccc(C2=NOC(c3cccc(Cl)c3)C2)cc1 (stereo not drawn) |  | > 83.3 µM
O=[N+]([O-])c1ccc(C2=NC(=S)NC(c3ccc(Cl)cc3)C2)cc1 (stereo not drawn) | 4.439 | 36.2 µM (≈ 12.5 µg/mL)
O=[N+]([O-])c1ccc(C2=NOC(c3ccc(Cl)cc3)C2)cc1 (stereo not drawn) | 4.08 | 83.3 µM (≈ 25.2 µg/mL)
O=C(/C=C/c1ccc(F)cc1)c1ccc([N+](=O)[O-])cc1 | 4.938 | 11.6 µM (≈ 3.13 µg/mL)
COc1ccc(C2CC(c3ccc([N+](=O)[O-])cc3)=NC(=O)N2)cc1OC (stereo not drawn) | 3.548 | 282 µM (≈ 100 µg/mL)
O=C1N=C(c2ccc([N+](=O)[O-])cc2)CC(c2ccc(Br)cc2)N1 (stereo not drawn) | 4.474 | 33.4 µM (≈ 12.5 µg/mL)
O=[N+]([O-])c1ccc(C2=NNC(c3ccc(Cl)cc3)C2)cc1 (stereo not drawn) | 4.079 | 83.6 µM (≈ 25.2 µg/mL)
COc1ccc(C2CC(c3ccc([N+](=O)[O-])cc3)=NN2)cc1 (stereo not drawn) |  | > 339 µM
O=[N+]([O-])c1ccc(C2=NOC(c3ccc(Cl)cc3Cl)C2)cc1 (stereo not drawn) | 4.428 | 37.3 µM (≈ 12.6 µg/mL)
O=[N+]([O-])c1ccc(C2=NNC(c3cccc(Cl)c3)C2)cc1 (stereo not drawn) | 4.079 | 83.6 µM (≈ 25.2 µg/mL)
COc1ccc(/C=C/C(=O)c2ccc([N+](=O)[O-])cc2)cc1OC |  | > 79.9 µM
COc1ccc(OC)c(C2CC(c3ccc([N+](=O)[O-])cc3)=NN2)c1 (stereo not drawn) | 3.813 | 154 µM (≈ 50.4 µg/mL)
CN(C)c1ccc(C2CC(c3ccc([N+](=O)[O-])cc3)=NC(=S)N2)cc1 (stereo not drawn) | 3.848 | 141 µM (≈ 50.1 µg/mL)
COc1ccc(C2CC(c3ccc([N+](=O)[O-])cc3)=NC(=S)N2)cc1 (stereo not drawn) | 3.531 | 293 µM (≈ 100 µg/mL)
COc1ccc(C2CC(c3ccc([N+](=O)[O-])cc3)=NO2)cc1OC (stereo not drawn) | 4.116 | 76.7 µM (≈ 25.2 µg/mL)

Reference: ChEMBL document CHEMBL3045084, “Synthesis, antitubercular activity, and QSAR analysis of substituted nitroaryl analogs: chalcone, pyrazole, isoxazole, and pyrimidines” (2013)
